From US9096591B2, “Tetracyclic compounds” (Medivation Technologies, Inc., priority 2007, dated 2015)

Key:
[1] = molecular target: T1, human recombinant histamine H1 receptor (Homo sapiens, UniProt P35367); test: Histamine H1 radioligand binding ([3H]Pyrilamine); settings: percent inhibition of specific binding; screened at 1 μM; read-out: Inhibition of ligand binding, Hist. H1
T1 construct: expressed in transfected cells; host or cells: CHO cells
Procedure, shortened: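 Receptor expressed in CHO cells, assayed in 50 mM Tris-HCl pH 7.4 with 2 mM MgCl2, 100 mM NaCl, 250 mM sucrose. Compounds tested at 1 μM in 1% DMSO; non-specific binding set with 1 μM pyrilamine. Filter-bound radioactivity counted; values are percent inhibition of specific binding.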

[2] = molecular target: T2, human recombinant adrenergic α1D receptor (Homo sapiens, UniProt P25100); test: Adrenergic α1D radioligand binding ([3H]Prozosin); set-up: Inhibition of ligand binding, Adren. alpha1D: concentration or dose not given beside the values; settings: percent inhibition of specific binding
T2 construct: expressed in transfected cells; host or cells: HEK-293 cells
T2 sequence (P25100 1-572): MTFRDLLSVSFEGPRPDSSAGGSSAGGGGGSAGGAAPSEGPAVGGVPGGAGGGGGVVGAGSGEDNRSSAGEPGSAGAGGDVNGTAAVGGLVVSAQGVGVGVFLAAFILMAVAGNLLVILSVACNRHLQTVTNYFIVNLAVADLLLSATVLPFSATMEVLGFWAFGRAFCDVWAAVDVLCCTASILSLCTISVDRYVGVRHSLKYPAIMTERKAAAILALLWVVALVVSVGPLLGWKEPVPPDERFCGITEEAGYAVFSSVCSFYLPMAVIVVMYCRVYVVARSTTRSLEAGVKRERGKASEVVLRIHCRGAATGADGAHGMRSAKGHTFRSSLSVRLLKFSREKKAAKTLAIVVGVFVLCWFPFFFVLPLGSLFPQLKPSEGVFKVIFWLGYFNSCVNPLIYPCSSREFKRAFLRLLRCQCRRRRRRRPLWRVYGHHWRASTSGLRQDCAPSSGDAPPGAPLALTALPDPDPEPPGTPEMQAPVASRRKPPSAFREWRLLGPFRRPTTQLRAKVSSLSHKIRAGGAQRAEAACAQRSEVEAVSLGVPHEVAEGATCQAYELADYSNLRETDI
Procedure: Compounds of invention were incubated with 0.6 nM [^3H]Prozosin for 60 minutes at 25° C. Non-specific binding was estimated in the presence of 10 μM phentolamine. Receptor proteins were filtered and washed, the filters were then counted to determine [^3H]Prozosin specifically bound. […] Biochemical assay results are presented as the percent inhibition of specific binding in Table 6.

[3] = molecular target: T3, human recombinant adrenergic α2A receptor (Homo sapiens, UniProt P08913); test: Adrenergic α2A radioligand binding ([3H]MK-912); set-up: Inhibition of ligand binding, Adren. alpha2A: concentration or dose not given beside the values; settings: percent inhibition of specific binding
T3 construct: expressed in transfected cells; host or cells: insect Sf9 cells
T3 sequence (P08913 1-465): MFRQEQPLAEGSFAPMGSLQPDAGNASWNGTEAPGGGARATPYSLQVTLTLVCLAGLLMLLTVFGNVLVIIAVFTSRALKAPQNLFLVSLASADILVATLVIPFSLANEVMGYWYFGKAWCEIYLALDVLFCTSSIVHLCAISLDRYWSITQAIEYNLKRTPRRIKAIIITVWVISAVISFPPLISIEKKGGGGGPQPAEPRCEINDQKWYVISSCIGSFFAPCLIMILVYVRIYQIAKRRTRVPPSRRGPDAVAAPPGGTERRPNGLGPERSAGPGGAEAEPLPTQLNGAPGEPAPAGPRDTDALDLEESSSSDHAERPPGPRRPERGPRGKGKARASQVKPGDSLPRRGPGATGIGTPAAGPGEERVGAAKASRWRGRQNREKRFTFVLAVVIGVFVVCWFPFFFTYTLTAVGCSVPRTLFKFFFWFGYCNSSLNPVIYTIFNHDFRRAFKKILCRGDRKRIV
Procedure, shortened: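 Membranes from Sf9 cells expressing the receptor were incubated with 1 nM [3H]MK-912 for 60 minutes at 25° C in 50 mM Tris-HCl pH 7.4, 12.5 mM MgCl2, 2 mM EDTA. 10 μM WB-4101 defined non-specific binding. Values are percent inhibition of specific bound radioactivity after filtration.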

T1 sequence (P35367 whole entry): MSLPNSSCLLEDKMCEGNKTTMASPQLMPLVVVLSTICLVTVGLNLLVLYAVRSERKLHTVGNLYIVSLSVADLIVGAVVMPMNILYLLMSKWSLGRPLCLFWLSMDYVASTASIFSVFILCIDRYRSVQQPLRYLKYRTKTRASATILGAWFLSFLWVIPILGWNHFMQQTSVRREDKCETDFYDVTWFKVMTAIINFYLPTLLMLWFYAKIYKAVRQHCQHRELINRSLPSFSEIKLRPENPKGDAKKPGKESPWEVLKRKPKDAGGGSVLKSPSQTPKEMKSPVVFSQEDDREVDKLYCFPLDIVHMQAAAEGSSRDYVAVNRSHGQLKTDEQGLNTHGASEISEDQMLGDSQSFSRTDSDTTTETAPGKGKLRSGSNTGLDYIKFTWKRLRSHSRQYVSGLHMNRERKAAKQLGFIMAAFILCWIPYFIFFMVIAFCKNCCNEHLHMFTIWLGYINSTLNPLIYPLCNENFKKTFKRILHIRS

SMILES | inhibition at 1 µM [1] [%] | Inhibition of ligand binding, Adren. alpha1D [2] [%] | Inhibition of ligand binding, Adren. alpha2A [3] [%]
Cc1ccc2c(c1)c1c(n2CCc2cncc(Cl)c2)CCN(C)C1 [Compound 443, 5-(2-(5-chloropyridin-3-yl)ethyl)-2,3,4,5-tetrahydro-2,8-dimethyl-1H-pyrido[4,3-b]indole] | 102 | 91 | 87
CN1CCc2c(c3cc(Cl)ccc3n2CCc2cncc(Cl)c2)C1 [Compound 444, 8-chloro-5-(2-(5-chloropyridin-3-yl)ethyl)-2,3,4,5-tetrahydro-2-methyl-1H-pyrido[4,3-b]indole] | 101 | 91 | 89
CCCc1ccc(CCn2c3c(c4cc(C)ccc42)CN(C)CC3)cn1 [Compound 452, 2,8-Dimethyl-5-[2-(6-propyl-pyridin-3-yl)-ethyl]-2,3,4,5-tetrahydro-1H-pyrido[4,3-b]indole] | 109 | 82 | 92
CC(Cn1c2c(c3ccccc31)CN(C)CC2)c1ccc(F)cc1 (stereo not drawn) [Compound 455] | 80 | 81 | 93
Cc1ccc2c(c1)c1c(n2CC(C)c2ccc(F)cc2)CCN(C)C1 (stereo not drawn) [Compound 456, 5-(2-(4-fluorophenyl)propyl)-2,3,4,5-tetrahydro-2,8-dimethyl-1H-pyrido[4,3-b]indole] | 99 | 96 | 106
Cc1ccc2c(c1)c1c(n2CC(=O)N2CCN(C)CC2)CCN(C)C1 [Compound 459, 2-(1,2,3,4-tetrahydro-2,8-dimethylpyrido[4,3-b]indol-5-yl)-1-(4-methylpiperazin-1-yl)ethanone] | 0 | 0 | −9
CCCc1ccc(CCn2c3c(c4cc(Cl)ccc42)CN(C)CC3)cn1 [Compound 476, 8-chloro-2,3,4,5-tetrahydro-2-methyl-5-(2-(6-propylpyridin-3-yl)ethyl)-1H-pyrido[4,3-b]indole] | 98 | 95 | 87
